Source: the NIST ThermoML archive (doi:10.1021/acs.jced.5b00542)
Numbers after ± are expanded uncertainties.

Settings: 298.15 K; 101.33 kPa; Liquid; Vibrating tube method

mass density [kg/m3] | Structure (SMILES)
874 ± 20 | c1ccccc1 [benzene]
779 ± 20 | C1CCCCC1 [cyclohexane]
659 ± 20 | CCCCCC [hexane]
798 ± 20 | CC(C)O [propan-2-ol]
